Reference: paper PMC4795541, “A Rapid and Quantitative Flow Cytometry Method for the Analysis of Membrane Disruptive Antimicrobial Activity” (PLoS ONE, 2016)
In brackets after ≈: the same amount, converted by molar mass. Read-outs that look alike come from different tables or passages of the source. Marks after values point to notes of the source that are not given here. Where a SMILES comes first, the peptide text is derived from it. Where no end group is shown, it is not given here. [ ]: non-standard residue; d: D form. Phe(ol) = N[C@H](CO)Cc1ccccc1; Dab = NCC[C@H](N)C(=O)O; Dap = NC[C@H](N)C(=O)O; Aib = CC(C)(N)C(=O)O

Legend:
K. pneumoniae ATCC 13883 = conditions: K. pneumoniae ATCC 13883; 90 min incubation; average of 3 assays ± SD
From the text: (§1) The bacterial strains; Fusobacterium nucleatum ATCC 25586, Streptococcus mutans Ingbritt, Staphylococcus aureus (MSSA) ATCC 29213; Staphylococcus aureus (MRSA) ATCC 43300; Enterococcus faecalis ATCC 29212; Enterobacter aerogenes ATCC 13048; Pseudomonas aeruginosa strain PAO1-LAC, ATCC 47085; Klebsiella pneumoniae ATCC 13883; Acinetobacter baumannii strain 2208, ATCC 19606; Escherichia coli ATCC 25922 lyophilised or glycerol stocks were obtained from the culture collection of the Oral Health Cooperative Research Centre, The Melbourne Dental School, University of Melbourne, Australia. These strains were selected for this study as they are widely used in antimicrobial studies and are considered to be important pathogens and major targets for antibiotic resistant studies. Bacteria were grown aerobically and maintained by passage at ambient temperature (E. coli, K. pneumoniae, A. baumannii and S. aureus strains) or at 37°C (P. aeruginosa, E. faecalis and E. aerogenes) on horse blood agar (10% v/v defibrinated horse blood, 4.4% w/v Oxoid Blood Agar Base No. 2). S. mutans and F. nucleatum were grown anaerobically (MK3 anaerobic workstation, Don Whitley Scientific Limited, England) and maintained by passage at 37°C on Todd Hewitt agar (3.6% w/v Oxoid Todd-Hewitt Broth, 1.5% w/v sucrose, 1.5% w/v BactoTM Agar, 0.8% w/v Oxoid Yeast Extract) or horse blood agar, respectively. For the antimicrobial peptide assays a 20 mL starter culture was produced by taking single colonies from blood or Todd Hewitt agar plates, respectively, to inoculate either: Luria Broth (LB; 1% w/v BactoTM Tryptone, 1% w/v NaCl, 0.5% w/v Oxoid Yeast Extract, pH 7.5, Thermo Scientific Pty, Ltd, Sydney, Australia) for bacteria; E. coli, K. pneumoniae, P. aeruginosa, A. baumannii, E. faecalis, E. aerogenes and S. aureus which were grown aerobically at 37°C, or Todd Hewitt broth (3.6% w/v Oxoid Todd-Hewitt Broth, 1.5% w/v sucrose, 0.8% w/v Oxoid Yeast 9 Extract) for S. mutans, or Brain Heart Infusion broth (BHI; 3.7% w/v Oxoid BHI, 0.05% w/v L-cysteine) for F. nucleatum which were both grown anaerobically at 37°C. After overnight incubation, 0.5–2.0 mL of the starter culture was used to inoculate the appropriate fresh broth (200 mL) and growth monitored at 650 nm using a spectrophotometer (model 275E; Perkin-Elmer, Sydney, Australia) with culture purity checked by microscopic examination and culture. Bacteria were harvested during late exponential growth phase and viability and bacteria/mL determined using a BacLight viability kit (Invitrogen, Sydney, Australia) and a Quanta SC-MPL flow cytometer (Beckman coulter Pty, Ltd, Sydney, Australia).
(§2) Antibacterial assays were undertaken to determinate the minimum inhibitory concentration (MIC), minimum bactericidal concentration (MBC) and minimum membrane disruptive concentration (MDC) of each of the antimicrobial peptides (AMP) and AMP analogues (S1 Table). For each bacterim a stock solution (2.5 × 10^6 cells/mL) in the respective media was made and an aliquot incubated with AMPs within 15 minutes from viable cell count and stock preparation. All AMPs were dissolved in DMSO and a 500 μM stock solution prepared by adding the respective media and serial dilutions (250–0.244 μM) of the AMP in media (100 μL/well) made just prior addition of bacteria. […] One hundred microliter aliquots of the bacterial stock solution (2.5 × 10^5 cells/well) were added to the AMP serial dilutions and incubated at 37°C for 90 min. Assay preparation and incubations were conducted in aerobic or anaerobic conditions dependent on the bacteria. Bacteria were also incubated in the absence of AMP to serve as a growth control for the assay. After the 90 minute incubation period the antimicrobial activity (MIC, MBC and MDC) was determined as follows;
(§3) For MIC the CLSI broth microdilution assay was followed as we have previously described.

[1] = tested on: S. aureus (MRSA) ATCC 43300; conditions: S. aureus (MRSA) ATCC 43300; 90 min incubation; average of 3 assays ± SD
From the text: as §1, §2, §3

[2] = tested on: S. aureus (MSSA) ATCC 29213; conditions: S. aureus (MSSA) ATCC 29213; 90 min incubation; average of 3 assays ± SD
From the text: as §1, §2, §3

E. aerogenes ATCC 13048 = conditions: E. aerogenes ATCC 13048; 90 min incubation; average of 3 assays ± SD
From the text: as §1, §2, §3

[3] = tested on: A. baumannii strain 2208, ATCC 19606; conditions: A. baumannii strain 2208, ATCC 19606; 90 min incubation; average of 3 assays ± SD
From the text: as §1, §2, §3

E. coli ATCC 25922 = conditions: E. coli ATCC 25922; 90 min incubation; average of 3 assays ± SD
From the text: as §1, §2, §3

F. nucleatum ATCC 25586 = tested on: F. nucleatum ATCC 25586
From the text: as §1, §2
For determination of MBC, the CLSI protocol was followed, with the modifications being that due to the rapid action of the AMPs the assay incubation time was shortened from 16–20 hours to 90 minutes.

S. mutans Ingbritt = assay: MDC, flow cytometry Syto9/PI membrane disruption assay; type: cell-based, Streptococcus mutans; conditions: 90 min peptide/bacteria incubation, average of 3 assays ± SD
From the text: as §1
Antibacterial assays were undertaken to determinate the minimum inhibitory concentration (MIC), minimum bactericidal concentration (MBC) and minimum membrane disruptive concentration (MDC) of each of the antimicrobial peptides (AMP) and AMP analogues (S1 Table). For each bacterim a stock solution (2.5 × 10^6 cells/mL) in the respective media was made and an aliquot incubated with AMPs within 15 minutes from viable cell count and stock preparation. All AMPs were dissolved in DMSO and a 500 μM stock solution prepared by adding the respective media and serial dilutions (250–0.244 μM) of the AMP in media (100 μL/well) made just prior addition of bacteria. […] After the 90 minute incubation period the antimicrobial activity (MIC, MBC and MDC) was determined as follows;

sheep red blood cells = assay: Hemolysis assay; type: cell-based; conditions: for Therapeutic Index (hemolysis): HC50/MDC50 (F. nucleatum), given as x : 1
Description: Fresh sheep red blood cells in Alsever’s solution (RBCs, Equicell, Victoria, Australia) were diluted 1 in 20 in PBS (pH 7.4), pelleted by centrifugation, and washed three times in PBS (1000 g, 10 min). The RBCs were counted using a cell counter (Coulter Particle Counter Z series, Beckman Coulter) and diluted to a final concentration of 2 × 10^7 cells/mL. […] Following incubation, the RBCs were pelleted centrifuged (1000 g, 10 min) and the amount of haemoglobin in 100 μL aliquots determined by measuring the absorbance at 405 nm using a microplate reader (PerkinElmer 1420 Multilabel Counter VICTOR3). Positive and negative controls for hemolysis were taken as RBC lysed with 0.5% Triton X-100 (1:1 v/v) and RBC suspension in PBS, respectively. The percentage of hemolysis was calculated using the following formula: % Hemolysis = [(A405 test sample—A405 negative control) / (A405 positive control—A405 negative control)] × 100
The percentage hemolysis was plotted against peptide concentration and linear regression analysis was used to determine the hemolytic concentration needed to lyse 50% (HC50) of RBCs.

[4] = F. nucleatum ATCC 25586, 90 min peptide/bacteria incubation, CFU on agar, ≥ 99.9% reduction, average of 3 assays ± SD
[5] = sheep RBCs 2 × 10^7 cells/mL in PBS pH 7.4, 2 h at 37°C, 5% CO2, A405, linear regression, maximum peptide concentration = 1000 µM

Molecule | MIC (K. pneumoniae ATCC 13883) [µM] | MIC [1] [µM] | MIC [2] [µM] | MIC (E. aerogenes ATCC 13048) [µM] | MIC [3] | MIC (E. coli ATCC 25922) | MBC (F. nucleatum ATCC 25586; [4]) [µM] | MDC (S. mutans Ingbritt) | Therapeutic Index (hemolysis) (sheep red blood cells) | Hemolysis (HC50) (sheep red blood cells; pH 7.4) [µM] | MBC (F. nucleatum ATCC 25586; ATCC 25586) | MBC (F. nucleatum ATCC 25586; F. nucleatum ATCC 25586, 90 min peptide/bacteria incubation, CFU on agar, ≥ 99.9% reduction, average of 3 assays ± SD, listed as Native) [µM] | Hemolysis (HC50) (sheep red blood cells; [5]) [µM]
CC(=O)NC(C)(C)C(=O)N1CCC[C@H]1C(=O)NC(C)(C)C(=O)N[C@@H](C)C(=O)NC(C)(C)C(=O)N[C@@H](C)C(=O)N[C@@H](CCC(N)=O)C(=O)NC(C)(C)C(=O)N[C@H](C(=O)NC(C)(C)C(=O)NCC(=O)N[C@@H](CC(C)C)C(=O)NC(C)(C)C(=O)N1CCC[C@H]1C(=O)N[C@H](C(=O)NC(C)(C)C(=O)NC(C)(C)C(=O)N[C@@H](CCC(=O)O)C(=O)N[C@@H](CCC(N)=O)C(=O)N[C@H](CO)Cc1ccccc1)C(C)C)C(C)C [Alamethicin] (Ac-[Aib]P[Aib]A[Aib]AQ[Aib]V[Aib]GL[Aib]PV[Aib][Aib]EQ[Phe(ol)]; N-terminus assumed) | >250 | 50.8 ± 3.5 (≈ 99.8 µg/mL) | 31.4 ± 7.4 (≈ 61.7 µg/mL) | >250 | 142.9±19.6^e μM | >250 µM | 18.0 ± 3.9 (≈ 35.4 µg/mL) | 41.9 ± 8.3 µM | – | – | – | – | –
CC[C@H](C)[C@H](NC(=O)CN)C(=O)NCC(=O)N[C@@H](CCN)C(=O)N[C@@H](Cc1ccccc1)C(=O)N[C@@H](CC(C)C)C(=O)N[C@@H](Cc1c[nH]cn1)C(=O)N[C@@H](CO)C(=O)N[C@@H](C)C(=O)N[C@@H](CCN)C(=O)N[C@@H](CCN)C(=O)N[C@@H](Cc1ccccc1)C(=O)NCC(=O)N[C@@H](CCN)C(=O)N[C@@H](C)C(=O)N[C@@H](Cc1ccccc1)C(=O)N[C@H](C(=O)NCC(=O)N[C@@H](CCC(=O)O)C(=O)N[C@H](C(=O)N[C@@H](CCSC)C(=O)N[C@@H](CC(N)=O)C(=O)N[C@@H](CO)C(N)=O)[C@@H](C)CC)C(C)C [Magainin-Dab] (H-GIG[Dab]FLHSA[Dab][Dab]FG[Dab]AFVGEIMNS-NH2; N-terminus assumed) | – | – | – | – | – | – | – | >200^c μM | >182 : 1 | >1000 | – | – | –
CC[C@H](C)[C@H](NC(=O)CN)C(=O)NCC(=O)N[C@@H](CN)C(=O)N[C@@H](Cc1ccccc1)C(=O)N[C@@H](CC(C)C)C(=O)N[C@@H](Cc1c[nH]cn1)C(=O)N[C@@H](CO)C(=O)N[C@@H](C)C(=O)N[C@@H](CN)C(=O)N[C@@H](CN)C(=O)N[C@@H](Cc1ccccc1)C(=O)NCC(=O)N[C@@H](CN)C(=O)N[C@@H](C)C(=O)N[C@@H](Cc1ccccc1)C(=O)N[C@H](C(=O)NCC(=O)N[C@@H](CCC(=O)O)C(=O)N[C@H](C(=O)N[C@@H](CCSC)C(=O)N[C@@H](CC(N)=O)C(=O)N[C@@H](CO)C(N)=O)[C@@H](C)CC)C(C)C [Magainin-Dap] (H-GIG[Dap]FLHSA[Dap][Dap]FG[Dap]AFVGEIMNS-NH2; N-terminus assumed) | – | – | – | – | – | – | – | >200^c μM | >67 : 1 | >1000 | 29.7±0.4^c μM | – | –
GIGKFLHSAKKFGKAFVGEIMNS-NH2 [Magainin II] | 132.2 ± 28.5 | >250 | >250 | >250 | 15.1±1.53^e μM | 29.5±3.7^e μM | 8.1 ± 1.3 | – | – | – | – | 7.3 ± 1.0 | 479.5 ± 42.9
GIGRFLHSARRFGRAFVGEIMNS-NH2 [Magainin-Arg] | – | – | – | – | – | – | – | 42.5±5.7^c μM | 100.8 : 1 | 251.9 ± 48.2 | 2.5±0.8^c μM | – | –
GIGXFLHSAXXFGXAFVGEIMNS-CONH2 [Magainin-Orn, magainin II analogue, all lysine residues substituted with ornithine] | – | – | – | – | – | – | 14.9 ± 0.2 | >200^c μM | 126.5 : 1 | – | – | – | 721.1 ± 65.3
